The test system of series [1] is subjects with autistic spectrum disorder. It counts as in vivo. The text has this: The systemic nature of Autistic Spectrum Disorder (ASD) and the pervasive developmental delay (PDD) that may accompany it has led the inventor of the invention to view the complexity of these presentations by addressing them from a cell membrane perspective. Autistic spectrum disorder is a complex neurodevelopmental disorder, which has been investigated under an open clinical study rather than randomized, placebo, controlled and double blinded studies due to the constellation of symptoms in autistic spectrum disorder and multiple variables in regard to the oral and IV intervention. Each subject served as his or her own control for several reasons, 1) control pediatric subjects are difficult to obtain due to the use of intravenous therapy, 2) compliance in regard to a restricted carbohydrate diet and oral intake of supplements is limited in controls, and 3) matching two subjects with the same diagnosis, gender, age, development, metabolism and presentation is unrealistic in regard to autism and PDD. Presently there are no biological markers that exist to identify autistic spectrum disorder in addition to speculation that multiple, variable susceptibility genes, epigenetic effects, and environmental factors complicate the disorder we term autism.
The case studies represented below present the result of the treatment regimen on 300 subjects studied. Phospholipid re-modeling of these subjects were stimulated by supplying oral or IV phospholipids, principally PC, as well as balanced essential fatty acids and catalysts via nutritional and phamaneutical interventions.
A butterfly catheter with a 23-gauge needle was inserted into a vein of the antecubital region of one of the subjects' arms. A syringe containing the PC (phosphatidylcholine) composition in about 5 to about 10 cc volume was connected to the catheter by a flexible tube. A volume of blood equal to the total volume of the PC composition was drawn into the syringe and the syringe was gently agitated to mix the blood and PC composition. The blood/PC composition mixture was then infused (or “pushed”) as a lipid exchange into the subject over a period of two to three minutes.
A butterfly catheter with a 23-gauge needle was inserted into a vein of the antecubital region of one of the subjects' arms. The PC composition was infused first followed by a pre-prepared syringe containing about 2 mg (0.2 cc) to about 5 mg (0.5 cc) of Leucovorin over the period of 2-3 minutes.
A butterfly catheter with a 23-gauge needle was inserted into a vein of the antecubital region of one of the subjects' arms. The PC and Leucovorin compositions were infused first followed by a pre-prepared syringe containing about 1.5 to 6 cc of glutathione generally pre-mixed with an equal portion of sterile water (not saline). The composition containing glutathione was followed the IV PC with a pre-prepared syringe of glutathione using the same needle. This procedure avoids re-sticking the patient by infusing first the PC, then the Leucovorin and then the glutathione using the same butterfly catheter with a flexible tube infused (or “pushed”) into the subject over a period of two to five minutes.

The conditions of series [2]: cited from earlier work.
For series [3] the following is noted: IV bolus doses of 7 grams, 14 grams and 21 grams; cited from earlier work.
The conditions of series [4]: L-Glutathione capsules, stomach acid; cited from earlier work.
The test system of series [5] is mouse model of Bulbar ALS. The note with it: oral administration; cited from earlier work.

Like-named read-outs stand apart in the source and are kept apart here.

The values below come from patent US20080254017A1, “Methods and compositions for treating symptomes of diseases related to imbalance of essential fatty acids” (priority 2006, published 2008).

Turning to Phosphatidylcholine, the clinical response entry in series [1] (Case Study Five, 2 grams then 3 grams on consecutive weeks dripped over 3 hours) is “increased awareness/communication”; in series [1] (Case Study Seven, IV 500 mg two to three times weekly, after 6 weeks) it was “dramatic improvement in response to others and the world around them”; in series [1] (Case Study Seven, IV lipid exchange 250 mg followed by 0.3 cc leucovorin and 1200 mg GSH, once weekly), “positive responsive”; in series [1] (Case Study Seven, bolus dosing), “increased language and awareness”; in series [1] (Case Study Six, IV 500 mg twice weekly, after 6 weeks), “improvement in fatigue, stable mood, return of focus, improvement in memory, clearance of orange color on palms/soles, less headaches, improved learning”; in series [1] (Case Study Six, IV lipid exchange 250 mg once weekly with supplementation and diet), “responsive”. For the same molecule, the clinical response result in series [1] (Case Study Six, bolus 1.5 grams in D5W dripped over 2 hours followed by glutathione) was “improved cognition, increased circulation, improved eye contact and more demonstrative, loving behavior”. For the same molecule, the tolerability result in series [1] (Case Study Six, bolus 3 grams dripped over 4 hours) was “well tolerated”. Besides, in series [2] (taken orally with meals), the oral absorption result is “up to 90 % per 24 hrs”. Further, the “time over which blood levels peak” value in series [2] (taken orally) was 8 to 12 h. In addition, in series [3], the side effects entry was “no side effects were observed”.
Consider `N[C@@H](CCC(=O)N[C@@H](CS)C(=O)NCC(=O)O)C(=O)O` [Glutathione, N—(N-L-gamma-glutamyl-L-cysteinyl) glycine], for which the “stability when taken orally” value in series [4] is “very unstable and is destroyed by the stomach acid before it can be absorbed”.
Turning to `CCCC(=O)[O-].[Na+]` [sodium butyrate], in series [5], the “acetylation of nuclear histone in neural tissues” value is “increased acetylation of nuclear histone in neural tissues” and the neurological phenotypes result was “successfully ameliorated neurological phenotypes”.
Consider `O=C(O)[C@@H](S)[C@@H](S)C(=O)O` [DMSA, meso-2,3-dimercaptosuccinic acid], for which the adverse outcome in series [1] (Case Study Seven, 13 months of oral dosing by another physician) is listed as “increased left side weakness”.
